The text below walks through data of patent US9056874B2, “Complement pathway modulators and uses thereof” (NOVARTIS AG, priority 2012, dated 2015).

The structures appear in SMILES notation.

factor B, sequence (P00751 26-764): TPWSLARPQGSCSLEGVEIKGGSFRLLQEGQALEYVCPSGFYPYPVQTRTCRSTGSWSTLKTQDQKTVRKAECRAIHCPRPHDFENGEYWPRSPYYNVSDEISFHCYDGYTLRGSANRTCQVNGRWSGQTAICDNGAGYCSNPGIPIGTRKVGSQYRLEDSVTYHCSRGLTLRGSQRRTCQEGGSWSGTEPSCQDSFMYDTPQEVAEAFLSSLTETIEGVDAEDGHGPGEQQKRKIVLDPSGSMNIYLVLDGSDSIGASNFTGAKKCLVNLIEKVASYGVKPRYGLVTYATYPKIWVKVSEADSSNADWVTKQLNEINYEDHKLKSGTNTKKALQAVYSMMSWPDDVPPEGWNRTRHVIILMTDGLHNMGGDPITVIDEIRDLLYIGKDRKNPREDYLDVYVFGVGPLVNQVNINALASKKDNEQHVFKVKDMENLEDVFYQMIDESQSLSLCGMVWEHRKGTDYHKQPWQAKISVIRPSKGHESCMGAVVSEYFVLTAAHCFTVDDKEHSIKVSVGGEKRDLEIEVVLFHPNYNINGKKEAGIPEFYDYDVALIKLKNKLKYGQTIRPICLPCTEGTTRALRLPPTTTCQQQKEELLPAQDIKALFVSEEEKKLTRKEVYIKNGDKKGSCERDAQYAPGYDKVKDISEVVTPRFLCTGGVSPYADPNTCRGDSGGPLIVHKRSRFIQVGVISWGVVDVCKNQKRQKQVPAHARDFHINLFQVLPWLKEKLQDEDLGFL

The assay concerns the target factor B (Homo sapiens, UniProt P00751). Description: assay of Biological Example 2.7. Set-up: made in house; host or cells: drosophila cells. It counts as binding. To be noted: assay of Biological Example 2.7 (Table 2).
Usually IC50 stands for the concentration at which inhibition is half-maximal. `COc1cc(C)c2[nH]ccc2c1C(NCCN)(c1nc2cc(C#N)ccc2[nH]1)C(F)(F)F` (racemic) [38-D b) (+), (+)-2-(1-((2-aminoethyl)amino)-2,2,2-trifluoro-1-(5-methoxy-7-methyl-1H-indol-4-yl)ethyl)-1H-benzo[d]imidazole-5-carbonitrile] showed a half-maximal inhibitory concentration (IC50) of 2060 nM.
With `COc1cc(C)c2[nH]ccc2c1C(NCCN)(c1nc2cc(C#N)ccc2[nH]1)C(F)(F)F` (racemic) [38-D b) (−), (−)-2-(1-((2-aminoethyl)amino)-2,2,2-trifluoro-1-(5-methoxy-7-methyl-1H-indol-4-yl)ethyl)-1H-benzo[d]imidazole-5-carbonitrile] the figure was 780 nM; with `COc1cc(C)c2[nH]ccc2c1C(OC(F)C(=O)O)(c1nc2cc(C#N)ccc2[nH]1)C(F)(F)F` (racemic) [Example 35-G, (±)-2-(1-(5-Cyano-1H-benzo[d]imidazol-2-yl)-2,2,2-trifluoro-1-(5-methoxy-7-methyl-1H-indol-4-yl)ethoxy)-2-fluoroacetic acid], 770 nM.
In turn, `COc1cc(C)c2[nH]ccc2c1C(OCc1nnc(C)o1)(c1nc2cc(C#N)ccc2[nH]1)C(F)(F)F` (racemic) [Example 35-L, (±)-2-(2,2,2-Trifluoro-1-(5-methoxy-7-methyl-1H-indol-4-yl)-1-((5-methyl-1,3,4-oxadiazol-2-yl)methoxy)ethyl)-1H-benzo[d]imidazole-5-carbonitrile] showed a concentration for half-maximal inhibition (IC50) of 240 nM.
On to `Cc1cc(C2CC2)c(C(OCC(=O)O)(c2nc3cc(C#N)ccc3[nH]2)C(F)(F)F)c2cc[nH]c12` (racemic) [Example 109-C, (±)-2-(1-(5-Cyano-1H-benzo[d]imidazol-2-yl)-1-(5-cyclopropyl-7-methyl-1H-indol-4-yl)-2,2,2-trifluoroethoxy)acetic acid], for which the IC50 is 65 nM.
`COc1cc(C)c2[nH]ccc2c1C(OCC(C)(C)C(=O)O)(c1nc2cc(C#N)ccc2o1)C(F)(F)F` (racemic) [Example 138, (±)-3-(1-(5-cyanobenzo[d]oxazol-2-yl)-2,2,2-trifluoro-1-(5-methoxy-7-methyl-1H-indol-4-yl)ethoxy)-2,2-dimethylpropanoic acid] registered an IC50 of 1220 nM.
On to `COc1cc(C)c2[nH]ccc2c1C(NCCO)(c1nc2cc(C#N)ccc2[nH]1)C(F)(F)F` (racemic) [Example 139-C, (±)-2-(2,2,2-Trifluoro-1-((2-hydroxyethyl)amino)-1-(5-methoxy-7-methyl-1H-indol-4-yl)ethyl)-1H-benzo[d]imidazole-5-carbonitrile], for which the IC50 amounted to 120 nM.
With `COc1cc(C)c2[nH]ccc2c1C(NCC(=O)O)(c1nc2cc(C#N)ccc2[nH]1)C(F)(F)F` (racemic) [Example 140-B, (±)-2-((1-(5-cyano-1H-benzo[d]imidazol-2-yl)-2,2,2-trifluoro-1-(5-methoxy-7-methyl-1H-indol-4-yl)ethyl)amino)acetic acid] the figure was 340 nM; with `COc1cc(C)c2[nH]ccc2c1C1(c2nc3cc(C#N)ccc3[nH]2)CC1C(=O)O` (racemic) [Example 142-D, (±)-2-(5-Cyano-1H-benzo[d]imidazol-2-yl)-2-(5-methoxy-7-methyl-1H-indol-4-yl)cyclopropanecarboxylic acid], 790 nM; with `COc1cc(C)c2[nH]ccc2c1C1(c2nc3cc(C#N)ccc3o2)CC1C(=O)O` (racemic) [Example 143, (±)-2-(5-Cyanobenzo[d]oxazol-2-yl)-2-(5-methoxy-7-methyl-1H-indol-4-yl)cyclopropanecarboxylic acid], 7200 nM.
`CCOC(=O)C(C)(c1nc2cc(C#N)ccc2o1)c1c(OC)cc(C)c2[nH]ccc12` (racemic) [Example 144-D, (±)-Ethyl 2-(5-cyanobenzo[d]oxazol-2-yl)-2-(5-methoxy-7-methyl-1H-indol-4-yl)propanoate] returned an IC50 of 7950 nM.
With `COc1cc(C)c2[nH]ccc2c1C(CC(=O)O)c1nc2cc(C#N)ccc2[nH]1` (racemic) [Example 145-D, (±)-3-(5-Cyano-1H-benzo[d]imidazol-2-yl)-3-(5-methoxy-7-methyl-1H-indol-4-yl)propanoic acid] the figure was 41 nM.
With `COc1cc(C)c2[nH]ccc2c1C(CCO)c1nc2cc(C#N)ccc2[nH]1` (racemic) [Example 145-E, (±)-2-(3-hydroxy-1-(5-methoxy-7-methyl-1H-indol-4-yl)propyl)-1H-benzo[d]imidazole-5-carbonitrile] the figure was 250 nM.
The value for `COc1cc(C)c2[nH]ccc2c1C(CCC(=O)O)c1nc2cc(C#N)ccc2[nH]1` (racemic) [Example 146-C, (±)-4-(5-Cyano-1H-benzo[d]imidazol-2-yl)-4-(5-methoxy-7-methyl-1H-indol-4-yl)butanoic acid] was 59 nM.
In the case of `COc1cc(C)c2[nH]ccc2c1C(C)(CCC(=O)O)c1nc2cc(C#N)ccc2o1` (racemic) [Example 150-C, (±)-4-(5-cyanobenzo[d]oxazol-2-yl)-4-(5-methoxy-7-methyl-1H-indol-4-yl)pentanoic acid], half-maximal inhibition (IC50) required 1020 nM.
Consider `COc1cc(C)c2[nH]ccc2c1C(CC(C)CO)c1nc2cc(C#N)ccc2[nH]1` (racemic) [Example 151-C, (±)-2-(4-Hydroxy-1-(5-methoxy-7-methyl-1H-indol-4-yl)-3-methylbutyl)-1H-benzo[d]imidazole-5-carbonitrile], for which the IC50 was 92 nM.
In the case of `COc1cc(C)c2[nH]ccc2c1C(Cc1nn[nH]n1)c1nc2cc(C#N)ccc2[nH]1` (racemic) [Example 152, (±)-2-(1-(5-Methoxy-7-methyl-1H-indol-4-yl)-2-(2H-tetrazol-5-yl)ethyl)-1H-benzo[d]imidazole-5-carbonitrile], the IC50 was 67 nM.
The value for `COc1cc(C)c2[nH]ccc2c1C(Cc1nn[nH]n1)c1nc2cc(C#N)ccc2o1` (racemic) [Example 153, (±)-2-(1-(5-Methoxy-7-methyl-1H-indol-4-yl)-2-(2H-tetrazol-5-yl)ethyl)benzo[d]oxazole-5-carbonitrile] was 1110 nM; that for `COc1cc(C)c2[nH]ccc2c1C(C)(Cc1nn[nH]n1)c1nc2cc(C#N)ccc2o1` (racemic) [Example 154, (±)-2-(2-(5-Methoxy-7-methyl-1H-indol-4-yl)-1-(2H-tetrazol-5-yl)propan-2-yl)benzo[d]oxazole-5-carbonitrile] was 21100 nM; that for `COc1cc(C)c2[nH]ccc2c1C(C)(CCC(=O)O)c1nc2cc(C#N)ccc2[nH]1` (racemic) [Example 155-M, (±)-4-(5-Cyano-1H-benzo[d]imidazol-2-yl)-4-(5-methoxy-7-methyl-1H-indol-4-yl)pentanoic acid] was 20 nM.
The value for `COC(=O)CC(C)(c1nc2cc(C#N)ccc2[nH]1)c1c(OC)cc(C)c2c1CCN2` (racemic) [Example 156-K, (±)-Methyl 3-(5-cyano-1H-benzo[d]imidazol-2-yl)-3-(5-methoxy-7-methylindolin-4-yl)butanoate] was 130 nM; that for `COc1cc(C)c2[nH]ccc2c1C(CCCC(=O)O)c1nc2cc(C#N)ccc2[nH]1` (racemic) [Example 157, (±)-5-(5-Cyano-1H-benzo[d]imidazol-2-yl)-5-(5-methoxy-7-methyl-1H-indol-4-yl)pentanoic acid] was 39 nM; that for `COc1cc(C)c2[nH]ccc2c1C(c1nc2cc(C#N)ccc2o1)C(C)(C)C(=O)O` (racemic) [Example 158, (±)-3-(5-Cyanobenzo[d]oxazol-2-yl)-3-(5-methoxy-7-methyl-1H-indol-4-yl)-2,2-dimethylpropanoic acid] was 21000 nM.
As to `COc1cc(C)c2[nH]ccc2c1C(N)(c1nc2cc(C#N)ccc2o1)C(F)(F)F` (single isomer, unassigned) [137-B b) (tr = 2.7 min), (+) or (−)-2-(1-amino-2,2,2-trifluoro-1-(5-methoxy-7-methyl-1H-indol-4-yl)ethyl)benzo[d]oxazole-5-carbonitrile], the IC50 was 20 nM.
For the compound `COc1cc(C)c2[nH]ccc2c1C(N)(c1nc2cc(C#N)ccc2o1)C(F)(F)F` (single isomer, unassigned) [137-B b) (tr = 4.6 min), (−) or (+)-2-(1-amino-2,2,2-trifluoro-1-(5-methoxy-7-methyl-1H-indol-4-yl)ethyl)benzo[d]oxazole-5-carbonitrile], the IC50 was determined as 3210 nM.
With `CCc1cc(C)c2[nH]ccc2c1C(C)(N)c1nc2cc(C#N)ccc2o1` (single isomer, unassigned) [137-F b) (tr = 3.3 min), (+) or (−)-2-(1-amino-1-(5-ethyl-7-methyl-1H-indol-4-yl)ethyl)benzo[d]oxazole-5-carbonitrile] the figure was 170 nM.
With `CCc1cc(C)c2[nH]ccc2c1C(C)(N)c1nc2cc(C#N)ccc2o1` (single isomer, unassigned) [137-F b) (tr = 4.9 min), (−) or (+)-2-(1-amino-1-(5-ethyl-7-methyl-1H-indol-4-yl)ethyl)benzo[d]oxazole-5-carbonitrile] the figure was 10 nM; with `CNC(C)(c1nc2cc(C#N)ccc2o1)c1c(OC)cc(C)c2[nH]ccc12` (single isomer, unassigned) [137-M b) (tr = 2.9 min), (+) or (−)-2-(1-(5-methoxy-7-methyl-1H-indol-4-yl)-1-(methylamino)ethyl)benzo[d]oxazole-5-carbonitrile], 370 nM; with `CCOC(=O)COC(c1nc2cc(C#N)ccc2[nH]1)(c1c(OC)cc(C)c2[nH]ccc12)C(F)(F)F` (single isomer, unassigned) [Example 35-D, (+) or (−)-Ethyl 2-(1-(5-cyano-1H-benzo[d]imidazol-2-yl)-2,2,2-trifluoro-1-(5-methoxy-7-methyl-1H-indol-4-yl)ethoxy)acetate], 24 nM.
With `Cc1cc(O)c(C(N)(c2nc3cc(C#N)ccc3[nH]2)C(F)(F)F)c2cc[nH]c12` (single isomer, unassigned) [Example 141, (+) or (−)-2-(1-amino-2,2,2-trifluoro-1-(5-hydroxy-7-methyl-1H-indol-4-yl)ethyl)-1H-benzo[d]imidazole-5-carbonitrile] the figure was 150 nM.
